Results taken from paper PMC11393339, “Structure and mechanism of a phosphotransferase system glucose transporter” (Nature Communications, 2024).

How the values were obtained:
IICB^Glc [1] = biological target: T1, IICB^Glc (Escherichia coli, UniProt P69786); experiment: nanoDSF thermal shift (Tycho NT.[…]); type: binding; details: 10 mM ligand, 4 µM protein, 20 mM HEPES-NaOH pH 8.0, 150 mM NaCl, 5 mM β-ME, 0.02% DDM
T1 construct: gene ptsG; full-length wild type with decahistidine tag; overexpressed in E. coli BW25113 delta-arcB delta-ptsG; homodimer; purified in DDM (nanoDSF) or in MSP1E3D1/POPC nanodiscs (cryo-EM, IIB domain not resolved)

IICB^Glc [2] = biological target: T1, IICB^Glc; experiment: nanoDSF thermal shift (Tycho NT.[…]); type: binding; details: 10 mM ligand, 4 µM protein, 20 mM HEPES-NaOH pH 8.0, 150 mM NaCl, 5 mM β-ME, 0.02% DDM; remark: listed apart in the source

T1 sequence (P69786 whole entry, the tested form may be a part): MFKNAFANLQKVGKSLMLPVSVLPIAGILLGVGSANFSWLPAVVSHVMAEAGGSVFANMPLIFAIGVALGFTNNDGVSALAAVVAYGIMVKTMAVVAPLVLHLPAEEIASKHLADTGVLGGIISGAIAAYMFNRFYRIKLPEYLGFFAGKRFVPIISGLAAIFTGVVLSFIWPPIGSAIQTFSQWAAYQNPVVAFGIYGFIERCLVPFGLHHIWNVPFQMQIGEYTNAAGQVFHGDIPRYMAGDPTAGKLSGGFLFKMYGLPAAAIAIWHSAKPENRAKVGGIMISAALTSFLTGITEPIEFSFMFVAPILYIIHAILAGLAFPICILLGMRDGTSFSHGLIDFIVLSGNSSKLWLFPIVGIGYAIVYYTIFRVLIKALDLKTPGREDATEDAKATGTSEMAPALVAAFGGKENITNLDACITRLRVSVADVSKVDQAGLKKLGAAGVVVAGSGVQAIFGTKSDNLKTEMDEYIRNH

| ΔTi (IICB^Glc [2]) | SMILES | ΔTi (IICB^Glc [1]) |
| --- | --- | --- |
|  | COC1O[C@H](CO)[C@@H](O)[C@H](O)[C@H]1O (stereo partly shown) [1-O-methyl-glucose] | 1-deoxy-glucose and 1-O-methyl-glucose bound best |
|  | OC[C@H]1OC[C@H](O)[C@@H](O)[C@@H]1O [1-deoxy-glucose] | 1-deoxy-glucose and 1-O-methyl-glucose bound best |
| ~ almost 10 °C | OC[C@H]1OC(O)[C@H](O)[C@@H](O)[C@@H]1O (stereo partly drawn) [D-glucose] |  |
|  | OC[C@H]1O[C@H](O[C@H]2[C@H](O)[C@@H](O)C(O)O[C@@H]2CO)[C@H](O)[C@@H](O)[C@@H]1O (stereo partly drawn) [D-maltose] | induced a slight stabilization of IICB^Glc |
